Laboratory results reported in PMC8929087, “Structural and Functional Characterization of a Novel Recombinant Antimicrobial Peptide from Hermetia illucens” (Current Issues in Molecular Biology, 2021).
Converted amounts (≈) assume the structure as drawn. Where a SMILES comes first, the peptide text is derived from it. Bridges are numbered along the chain shown (N, C = ends).

Columns and labels:
[1] = test system: E. coli Bl21 cells; experiment: Scanning electron microscopy (SEM) of cell morphology; assay type: cell-based, Escherichia coli; details: sub-mic concentration (9 µM) of peptide, 3 h incubation at 37 °C, compared with untreated cells
Protocol: The effect of C-15867 on the morphology of E. coli BL21 cells was also assessed by SEM microscopy analyses. Bacterial cells were treated with a sub-mic concentration (9 µM) of the antimicrobial peptide and SEM analyses were carried out after 3 h of incubation in comparison with untreated cells.
The cell wall and the cell surface were rough gradually forming pores with subsequent leakage of cytoplasmic material confirming the disrupting effect of the antimicrobial peptide on the bacterial membrane.
Figure 7 Scanning electron microscopy of E. coli BL2_1 cells following 3 h treatment with a sub-mic concentration (9 µM) of the antimicrobial peptide C-15867 (d–f) in comparison with untreated cells (a–c). The scale bar was 2 µm in panel (a), 500nm in panel (b,c) and 1µm in panel (d–f).
E. coli BL21 cells were grown in the absence and in the presence of native C15867 peptide at 37 °C for 3 h. Samples from each culture were fixed in 2.5% glutaraldehyde solution for 16 h. Following the incubation, the bacterial cells were washed with 0.1 M PBS (pH 7.2) and dehydrated in a series of ethanol solutions ranging from 30 to 100%, followed by three washes with 100% ethanol. E. coli cells were deposited onto glass substrate first sputter coated with a thin layer of Au-Pd alloy (Denton Vacuum Desk V Magnetron Sputtering) to allow subsequent morphological characterization using a FEI Nova NanoSEM 450.

[2] = test system: Staphylococcus aureus NCTC 12493; assay type: cell-based; details: NCTC 12493, 24 h
Protocol: (§1) The […] antimicrobial activity of the recombinant C-15867 peptide was evaluated against three different bacterial strains: E. coli BL21, Staphylococcus aureus NCTC 12493 and Staphylococcus. epidermidis ATCC 12228. The minimum inhibitory concentration (MIC) was determined as the lowest concentration showing no visible growth after 24 h of incubation at 37 °C.
(§2) Figure 5 Determination of C-15867 minimum inhibitory concentration (MIC). All bacteria cells were grown in the presence of serial dilution of peptide from 248 µM to 0.56 µM and incubated at 37 °C for 24 h. The error bars on the graphs stand for the standard deviation from the mean of three experiments.
(§3) The procedure was performed using medium as negative control and cells approximately 5 × 10^5 CFU/mL as positive control to monitor the normal growth of bacteria.

[3] = test system: E. coli BL21; assay type: cell-based, Escherichia coli; details: BL21, 24 h
Protocol: as §1, §2, §3

[4] = test system: Staphylococcus epidermidis ATCC 12228; experiment: Minimum inhibitory concentration (MIC) determination; assay type: cell-based; details: serial dilution of peptide 248 to 0.5 μM, 24 h at 37 °C
Protocol: as §1, §2, §3

[5] = test system: E. coli BL21 membrane permeability; experiment: Crystal violet assay of membrane permeability; assay type: cell-based, Escherichia coli; details: sub-mic concentration (9 µM) of peptide, LB broth, 37 °C, OD590 of supernatant
Protocol: With C-15867 being a defensin-like AMP, we investigated the effect of the peptide, if any, on E. coli BL21 membrane permeability using the crystal violet assay. Bacterial cells were grown in the presence of a sub-mic concentration (9 µM) of the peptide and the uptake of crystal violet was monitored at different times of incubation.
Figure 6 Effect of C-15867 on E. coli BL21 membrane permeability. The uptake of crystal violet was calculated in the presence of sub-mic concentration (9 µM) of the peptide.
The alteration in membrane permeability was detected by crystal violet assay. Bacterial cells were grown in LB broth at 37 °C in the presence of […] peptide for 1 and 3 h. Subsequently, the cells were harvested at 9300× g for 5 min and then the cells were resuspended in 1× PBS containing 10 µg/mL of crystal violet. The cell suspension was incubated for 10 min at 37 °C and then centrifuged at 13,400× g for 15 min and the OD590 of the supernatant was measured at the spectrophotometer. Control samples were prepared similarly without treatment. The OD value of the crystal violet solution, which was originally used in the assay, was taken and it was considered as 100%. The percentage of crystal violet uptake of all the samples was quantified according to the following formula: OD value of the sample/OD value of the crystal violet solution 100×.

In the case of `CC[C@H](C)[C@@H]1NC(=O)[C@@H]2CSSC[C@@H](C(=O)N[C@@H](CCCNC(=N)N)C(=O)O)NC(=O)[C@H](C(C)C)NC(=O)[C@@H]3CSSC[C@H](NC(=O)[C@@H]4CCCN4C(=O)[C@H](C)NC(=O)[C@H](CCCNC(=N)N)NC(=O)CNC(=O)[C@H](Cc4ccccc4)NC(=O)[C@H](Cc4ccccc4)NC(=O)[C@@H]4CCCN4C(=O)[C@H](CCCCN)NC(=O)[C@H](CC(C)C)NC(=O)[C@H](CC(C)C)NC(=O)[C@H](CC(=O)O)NC(=O)[C@@H](NC(=O)[C@@H](NC(=O)[C@@H](N)C(C)C)[C@@H](C)O)CSSC[C@H](NC(=O)[C@H](Cc4ccccc4)NC(=O)CNC(=O)[C@H]([C@@H](C)O)NC(=O)[C@H](CCCNC(=N)N)NC(=O)[C@H](CCCCN)NC(=O)[C@H](CCCCN)NC(=O)[C@H](Cc4ccccc4)NC(=O)[C@H](CCCNC(=N)N)NC(=O)[C@H](CC(C)C)NC1=O)C(=O)N[C@@H](CO)C(=O)N[C@@H](CCCNC(=N)N)C(=O)N[C@@H](CCC(N)=O)C(=O)N[C@@H](CC(N)=O)C(=O)N[C@@H](C(C)C)C(=O)N3)C(=O)N[C@@H](CCSC)C(=O)N[C@@H](CCSC)C(=O)N[C@@H](Cc1c[nH]cn1)C(=O)N2` [C-15867] (H-VTCDLLKPFFGRAPCMMHCILRFKKRTGFCSRQNVCVCR-OH; disulfide 3-30, 15-36, 19-38; N-terminus and C-terminus assumed), the “cell morphology by SEM (in words)” value [1] was “severe morphological changes”, the “minimum inhibitory concentration (MIC)” value [2] was 36 µM (≈ 164 µg/mL) and the “minimum inhibitory concentration (MIC)” value [3] was 36 µM (≈ 164 µg/mL). The “antimicrobial effect (in words)” value [4] was “strong antimicrobial effect”, the “increase in the uptake of crystal violet” value ([5]; 1 h of treatment) was 22% and the “increase in the uptake of crystal violet” value ([5]; 3 h of treatment) was 34%.
